# Reference: patent publication US20260262643A1, “HERBICIDAL BENZOXAZINES” (FMC CORPORATION, priority 2022, published 2026)
# Legend:
# barnyardgrass [1] = assay: Test C preemergence; type: in vivo, Echinochloa crusgalli
# In short: (§1)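 Greenhouse herbicide screen, 10-day duration. Test chemicals in solvent/surfactant blend were sprayed onto soil at sowing (pre) or onto 2–10 cm seedlings at one to two leaves (post); injury scored visually against controls, 0 no effect to 100 complete control.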
# blackgrass [2] = assay: Test C preemergence; type: in vivo, Alopecurus myosuroides
# In short: as §1
# corn [3] = assay: Test C preemergence; type: in vivo, Zea mays
# In short: as §1
# green foxtail [4] = assay: Test C preemergence; type: in vivo, Setaria viridis
# In short: as §1
# kochia [5] = assay: Test C preemergence; type: in vivo, Bassia scoparia
# In short: as §1
# oat, wild [6] = assay: Test C preemergence; type: in vivo, Avena fatua
# In short: as §1
# pigweed, palmer [7] = assay: Test C preemergence; type: in vivo, Amaranthus palmeri
# In short: as §1
# ragweed [8] = assay: Test C preemergence; type: in vivo, Ambrosia artemisiifolia
# In short: as §1
# ryegrass, Italian [9] = assay: Test C preemergence; type: in vivo, Lolium multiflorum
# In short: as §1
# soybean [10] = assay: Test C preemergence; type: in vivo, Glycine max
# In short: as §1
# wheat [11] = assay: Test C preemergence; type: in vivo, Triticum aestivum
# In short: as §1
# barnyardgrass [12] = assay: Test C postemergence; type: in vivo, Echinochloa crusgalli; settings: 10 days, 0 to 100 scale (0 no effect, 100 complete control)
# In short: as §1
# blackgrass [13] = assay: Test C postemergence; type: in vivo, Alopecurus myosuroides; settings: 10 days, 0 to 100 scale (0 no effect, 100 complete control)
# In short: as §1
# corn [14] = assay: Test C postemergence; type: in vivo, Zea mays; settings: 10 days, 0 to 100 scale (0 no effect, 100 complete control)
# In short: as §1
# green foxtail [15] = assay: Test C postemergence; type: in vivo, Setaria viridis; settings: 10 days, 0 to 100 scale (0 no effect, 100 complete control)
# In short: as §1
# kochia [16] = assay: Test C postemergence; type: in vivo, Bassia scoparia; settings: 10 days, 0 to 100 scale (0 no effect, 100 complete control)
# In short: as §1
# oat, wild [17] = assay: Test C postemergence; type: in vivo, Avena fatua; settings: 10 days, 0 to 100 scale (0 no effect, 100 complete control)
# In short: as §1
# pigweed, palmer [18] = assay: Test C postemergence; type: in vivo, Amaranthus palmeri; settings: 10 days, 0 to 100 scale (0 no effect, 100 complete control)
# In short: as §1
# ragweed [19] = assay: Test C postemergence; type: in vivo, Ambrosia artemisiifolia; settings: Postemergence, 125 g ai/ha; 0 to 100 scale (0 no effect, 100 complete control), 10 days
# In short: as §1
# ryegrass, Italian [20] = assay: Test C postemergence; type: in vivo, Lolium multiflorum; settings: Postemergence, 125 g ai/ha; 0 to 100 scale (0 no effect, 100 complete control), 10 days
# In short: as §1
# soybean [21] = assay: Test C postemergence; type: in vivo, Glycine max; settings: Postemergence, 125 g ai/ha; 0 to 100 scale (0 no effect, 100 complete control), 10 days
# In short: as §1
# wheat [22] = assay: Test C postemergence; type: in vivo, Triticum aestivum; settings: Postemergence, 125 g ai/ha; 0 to 100 scale (0 no effect, 100 complete control), 10 days
# In short: as §1
# galium = assay: Test C postemergence; type: in vivo, Galium aparine; settings: 10 days, 0 to 100 scale (0 no effect, 100 complete control)
# In short: as §1
# horseweed = assay: Test C postemergence; type: in vivo, Erigeron canadensis; settings: 10 days, 0 to 100 scale (0 no effect, 100 complete control)
# In short: as §1
# barnyardgrass [23] = assay: Test D flooded paddy test; type: in vivo, Echinochloa crus-galli; settings: 250 g ai/ha, applied to paddy water, visual rating after 13 to 14 days, scale 0 to 100 (0 no effect, 100 complete control)
# In short: (§2)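 2-leaf plants; flood 3 cm above soil; compound dosed into paddy water; greenhouse 13–14 d; visual rating vs controls, 0–100 (100 = complete control); dash = not tested.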
# ducksalad = assay: Test D flooded paddy test; type: in vivo, Heteranthera limosa; settings: 250 g ai/ha, applied to paddy water, visual rating after 13 to 14 days, scale 0 to 100 (0 no effect, 100 complete control)
# In short: as §2
# rice = assay: Test D flooded paddy test; type: in vivo, Oryza sativa; settings: 250 g ai/ha, applied to paddy water, visual rating after 13 to 14 days, scale 0 to 100 (0 no effect, 100 complete control)
# In short: as §2
# sedge, umbrella = assay: Test D flooded paddy test; type: in vivo, Cyperus difformis; settings: 250 g ai/ha, applied to paddy water, visual rating after 13 to 14 days, scale 0 to 100 (0 no effect, 100 complete control)
# In short: as §2
# [24] = 500 g ai/ha, preemergence, 0 to 100 scale (0 no effect, 100 complete control)
# [25] = Preemergence, 125 g ai/ha, 0 to 100 scale, 0 no effect, 100 complete control
structure (smiles),measurement,setting,value
CCOC[C@H]1CN(C(=O)c2cc(-n3cnc(C(C)C)n3)cc3c2OCCO3)c2cccc(Cl)c2O1 [Compound 396],Barnyardgrass plant response rating,barnyardgrass [1]; [24],90
same,"Plant response rating, Barnyardgrass",barnyardgrass [1]; [25],50
same,Blackgrass plant response rating,blackgrass [2]; [24],40
same,"Plant response rating, Blackgrass",blackgrass [2]; [25],20
same,Corn plant response rating,corn [3]; [24],40
same,"Plant response rating, Corn",corn [3]; [25],10
same,"Foxtail, Green plant response rating",green foxtail [4]; [24],100
same,"Plant response rating, Foxtail, Green",green foxtail [4]; [25],90
same,Kochia plant response rating,kochia [5]; [24],90
same,"Plant response rating, Kochia",kochia [5]; [25],70
same,"Oat, Wild plant response rating","oat, wild [6]; [24]",90
same,"Plant response rating, Oat, Wild","oat, wild [6]; [25]",30
same,"Pigweed, Palmer plant response rating","pigweed, palmer [7]; [24]",100
same,"Plant response rating, Pigweed, Palmer","pigweed, palmer [7]; [25]",100
same,Ragweed plant response rating,ragweed [8]; [24],90
same,"Plant response rating, Ragweed",ragweed [8]; [25],80
same,"Ryegrass, Italian plant response rating","ryegrass, Italian [9]; [24]",90
same,"Plant response rating, Ryegrass, Italian","ryegrass, Italian [9]; [25]",60
same,Soybean plant response rating,soybean [10]; [24],100
same,"Plant response rating, Soybean",soybean [10]; [25],60
same,Wheat plant response rating,wheat [11]; [24],30
same,"Plant response rating, Wheat",wheat [11]; [25],0
same,"Plant response rating, Barnyardgrass","barnyardgrass [12]; 500 g ai/ha, postemergence",50
same,"Plant response rating, Barnyardgrass","barnyardgrass [12]; Postemergence, 125 g ai/ha",30
same,"Plant response rating, Blackgrass","blackgrass [13]; 500 g ai/ha, postemergence",70
same,"Plant response rating, Blackgrass","blackgrass [13]; Postemergence, 125 g ai/ha",30
same,"Plant response rating, Corn","corn [14]; 500 g ai/ha, postemergence",60
same,"Plant response rating, Corn","corn [14]; Postemergence, 125 g ai/ha",50
same,"Plant response rating, Foxtail, Green","green foxtail [15]; 500 g ai/ha, postemergence",80
same,"Plant response rating, Foxtail, Green","green foxtail [15]; Postemergence, 125 g ai/ha",60
same,"Plant response rating, Kochia","kochia [16]; 500 g ai/ha, postemergence",100
same,"Plant response rating, Kochia","kochia [16]; Postemergence, 125 g ai/ha",80
same,"Plant response rating, Oat, Wild","oat, wild [17]; 500 g ai/ha, postemergence",40
same,"Plant response rating, Oat, Wild","oat, wild [17]; Postemergence, 125 g ai/ha",20
same,"Plant response rating, Pigweed, Palmer","pigweed, palmer [18]; 500 g ai/ha, postemergence",90
same,"Plant response rating, Pigweed, Palmer","pigweed, palmer [18]; Postemergence, 125 g ai/ha",90
same,"Plant response rating, Ragweed",ragweed [19],70
same,"Plant response rating, Ryegrass, Italian","ryegrass, Italian [20]",0
same,"Plant response rating, Soybean",soybean [21],100
same,"Plant response rating, Wheat",wheat [22],20
same,"Plant response rating, Galium","galium; 500 g ai/ha, postemergence",100
same,"Plant response rating, Galium","galium; Postemergence, 125 g ai/ha",100
same,"Plant response rating, Horseweed","horseweed; 500 g ai/ha, postemergence",60
same,"Plant response rating, Horseweed","horseweed; Postemergence, 125 g ai/ha",0
same,"Plant response rating, Barnyardgrass (Flood)",barnyardgrass [23],0
same,"Plant response rating, Ducksalad (Flood)",ducksalad,0
same,"Plant response rating, Rice (Flood)",rice,0
same,"Plant response rating, Sedge, Umbrella (Flood)","sedge, umbrella",0
